Assays:
Format in all cases: biochemical
JNK3 = JNK3 (Homo sapiens, UniProt P53779); assay: JNK3 inhibition assay (spectrophotometric coupled-enzyme assay); settings: 10 μM ATP, 10 nM activated JNK3
Protocol: Compounds were assayed for the inhibition of JNK3 by a spectrophotometric coupled-enzyme assay. In this assay, a fixed concentration of activated JNK3 (10 nM) was incubated with various concentrations of a potential inhibitor dissolved in DMSO for 10 minutes at 30° C. in a buffer containing 0.1 M HEPES buffer, pH 7.5, containing 10 mM MgCl2, 2.5 mM phosphoenolpyruvate, 200 μM NADH, 150 μg/mL pyruvate kinase, 50 μg/mL lactate dehydrogenase, and 200 μM EGF receptor peptide. The EGF receptor peptide is a phosphoryl acceptor in the JNK3-catalyzed kinase reaction. The reaction was initiated by the addition of 10 μM ATP and the assay plate is inserted into the spectrophotometer's assay plate compartment that was maintained at 30° C. The decrease of absorbance at 340 nm was monitored as a function of time. The rate data as a function of inhibitor concentration was fitted to competitive inhibition kinetic model to determine the Ki.

ZAP-70 = target: T1, ZAP-70 (Homo sapiens, UniProt P43403); assay: ZAP-70 inhibition assay (coupled enzyme assay); settings: 100 μM ATP, 60 nM ZAP-70
T1 sequence (P43403 1-619): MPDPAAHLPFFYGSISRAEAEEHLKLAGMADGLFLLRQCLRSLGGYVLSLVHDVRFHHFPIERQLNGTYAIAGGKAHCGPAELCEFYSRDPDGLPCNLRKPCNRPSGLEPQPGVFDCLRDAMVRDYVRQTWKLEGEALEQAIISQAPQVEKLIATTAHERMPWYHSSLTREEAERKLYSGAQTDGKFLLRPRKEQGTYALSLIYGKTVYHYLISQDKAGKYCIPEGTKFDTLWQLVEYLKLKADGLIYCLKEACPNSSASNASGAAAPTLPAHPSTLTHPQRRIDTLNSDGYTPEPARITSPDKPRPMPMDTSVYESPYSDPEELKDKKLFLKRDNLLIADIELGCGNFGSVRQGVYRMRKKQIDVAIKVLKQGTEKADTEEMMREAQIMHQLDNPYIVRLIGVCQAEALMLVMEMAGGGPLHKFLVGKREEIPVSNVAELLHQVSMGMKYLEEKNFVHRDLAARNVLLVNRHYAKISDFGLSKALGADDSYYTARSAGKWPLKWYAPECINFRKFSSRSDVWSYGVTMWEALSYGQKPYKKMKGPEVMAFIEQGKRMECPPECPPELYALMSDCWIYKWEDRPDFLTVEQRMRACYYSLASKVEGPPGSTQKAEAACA
Protocol: Compounds were screened for their ability to inhibit ZAP-70 using a standard coupled enzyme assay (Fox et al., Protein Sci., (1998) 7, 2249). Assays were carried out in a mixture of 100 mM HEPES 7.5, 10 mM MgCl2, 25 mM NaCl, 2 mM DTT and 3% DMSO. Final substrate concentrations in the assay were 100 μM ATP (Sigma Chemicals) and 20 μM peptide (poly-4EY, Sigma Chemicals). Assays were carried out at 30° C. and 60 nM ZAP-70. Final concentrations of the components of the coupled enzyme system were 2.5 mM phosphoenolpyruvate, 300 μM NADH, 30 μg/ml pyruvate kinase and 10 μg/ml lactate dehydrogenase.
An assay stock buffer solution was prepared containing all of the reagents listed above, with the exception of ZAP-70 and the test compound of interest. 55 μl of the stock solution was placed in a 96 well plate followed by addition of 2 μl of DMSO stock containing serial dilutions of the test compound (typically starting from a final concentration of 15 μM). […] Initial reaction rates were determined with a Molecular Devices SpectraMax Plus plate reader over a 15 minute time course. IC50 and Ki data were calculated from non-linear regression analysis using the Prism software package (GraphPad Prism version 3.0a for Macintosh, GraphPad Software, San Diego Calif., USA).

CDK-2/Cyclin A = CDK-2/Cyclin A (Homo sapiens, UniProt P24941); assay: CDK2 inhibition assay (coupled enzyme assay); settings: 100 μM ATP, 25 nM CDK-2/Cyclin A
Protocol: Compounds were screened for their ability to inhibit CDK-2/Cyclin A using a standard coupled enzyme assay (Fox et al (1998) Protein Sci 7, 2249). Reactions were carried out in 100 mM HEPES pH 7.5, 10 mM MgCl2, 25 mM NaCl, 1 mM DTT and 1.5% DMSO. Final substrate concentrations in the assay were 100 μM ATP (Sigma chemicals) and 100 μM peptide (American Peptide, Sunnyvale, Calif.). Assays were carried out at 30° C. and 25 nM CDK-2/Cyclin A. Final concentrations of the components of the coupled enzyme system were 2.5 mM phosphoenolpyruvate, 350 μM NADH, 30 μg/ml pyruvate kinase and 10 μg/ml lactate dehydrogenase.
An assay stock buffer solution was prepared containing all of the reagents listed above, with the exception of CDK-2/Cyclin A, DTT and the test compound of interest. 56 μl of the test reaction was placed in a 384 well plate followed by addition of 1 μl of 2 mM DMSO stock containing the test compound (final compound concentration 30 μM). The plate was preincubated for ˜10 minutes at 30° C. and the reaction initiated by addition of 10 μl of enzyme (final concentration 25 nM). Rates of reaction were obtained using a BioRad Ultramark plate reader (Hercules, Calif.) over a 5 minute read time at 30° C. Compounds showing >50% inhibition versus standard wells containing DMSO, but no compound, were titrated and IC50's determined using a similar protocol.

Measured: Ki

Chain of JNK3 (P53779 whole entry, species assumed): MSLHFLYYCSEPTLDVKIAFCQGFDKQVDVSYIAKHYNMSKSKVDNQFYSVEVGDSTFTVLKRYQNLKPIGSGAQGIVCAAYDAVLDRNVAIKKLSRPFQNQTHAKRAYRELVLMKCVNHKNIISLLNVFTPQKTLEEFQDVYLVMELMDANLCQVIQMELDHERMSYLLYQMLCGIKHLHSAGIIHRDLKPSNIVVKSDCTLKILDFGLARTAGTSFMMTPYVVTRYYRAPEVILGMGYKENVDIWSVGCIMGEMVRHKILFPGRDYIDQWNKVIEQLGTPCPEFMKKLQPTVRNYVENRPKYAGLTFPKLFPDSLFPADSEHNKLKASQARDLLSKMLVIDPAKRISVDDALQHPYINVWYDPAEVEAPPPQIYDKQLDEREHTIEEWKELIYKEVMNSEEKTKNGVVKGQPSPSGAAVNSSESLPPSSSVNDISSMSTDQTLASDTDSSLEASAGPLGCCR

NS(=O)(=O)c1ccc(Nc2nccc(-c3ccc4c(c3)NC(=O)CO4)n2)cc1 [IVa-23]
< 1 µM: all assays above

CN1C(=O)COc2ccc(-c3ccnc(Nc4ccc(S(N)(=O)=O)cc4)n3)cc21 [IVa-24]
< 1 µM: all assays above
